According to the supplement of paper PMC10307832:

How the values were obtained:
Assay in all cases: relative viability (nuclei count vs DMSO), 5 days (fraction); higher = more cells survive
NCI-H1792 = tested on: NCI-H1792
Procedure, shortened: (§1)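 Medians of duplicate plates are given as relative viability. That measure is the nuclei count in treated wells divided by the count in vehicle wells. Counts were taken on 4× images of lung cancer cell lines in 1536-well plates, 5 days after pin-tool dosing the day after seeding with one drug alone or a fixed anchor-drug dose plus five library-drug doses (not always all listed) in √10 steps.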

NCI-H661 = tested on: NCI-H661
Procedure, shortened: as §1

NCI-H1915 = tested on: NCI-H1915
Procedure, shortened: as §1

HCC-15 = tested on: HCC-15
Procedure, shortened: as §1

HARA = tested on: HARA
Procedure, shortened: as §1

LC-2-ad = tested on: LC-2-ad
Procedure, shortened: as §1

LCLC-97TM1 = tested on: LCLC-97TM1
Procedure, shortened: as §1

PC-3 [JPC-3] = tested on: PC-3 [JPC-3]
Procedure, shortened: as §1

LU99A = tested on: LU99A
Procedure, shortened: as §1

SK-LU-1 = tested on: SK-LU-1
Procedure, shortened: as §1

NCI-H23 = tested on: NCI-H23
Procedure, shortened: as §1

EMC-BAC-2 = tested on: EMC-BAC-2
Procedure, shortened: as §1

NCI-H1944 = tested on: NCI-H1944
Procedure, shortened: as §1

NCI-H2126 = tested on: NCI-H2126
Procedure, shortened: as §1

NCI-H1793 = tested on: NCI-H1793
Procedure, shortened: as §1

NCI-H460 = tested on: NCI-H460
Procedure, shortened: as §1

NCI-H1437 = tested on: NCI-H1437
Procedure, shortened: as §1

H3255 = tested on: H3255
Procedure, shortened: as §1

HCC-827 = tested on: HCC-827
Procedure, shortened: as §1

EKVX = tested on: EKVX
Procedure, shortened: as §1

NCI-H441 = tested on: NCI-H441
Procedure, shortened: as §1

NCI-H322M = tested on: NCI-H322M
Procedure, shortened: as §1

## CCCCCCCCCCCC1=C(O)C(=O)C=C(O)C1=O [Embelin] + C[C@]1(O)C[C@@H](c2nc(-c3ccc4ccc(-c5ccccc5)nc4c3)c3c(N)nccn32)C1 [Linsitinib] (partner 1 µM)
NCI-H1792; first compound 0.08 µM
  relative viability: 0.589
NCI-H1792; first compound 0.8 µM
  relative viability: 0.607
NCI-H1792; first compound 2.53 µM
  relative viability: 0.72
NCI-H1792; first compound 8 µM
  relative viability: 0.434
NCI-H661; first compound 0.08 µM
  relative viability: 0.635
NCI-H661; first compound 0.8 µM
  relative viability: 0.717
NCI-H661; first compound 2.53 µM
  relative viability: 0.546
NCI-H661; first compound 8 µM
  relative viability: 0.623
NCI-H1915; first compound 0.08 µM
  relative viability: 1.17
NCI-H1915; first compound 0.8 µM
  relative viability: 1.11
NCI-H1915; first compound 2.53 µM
  relative viability: 1.13
NCI-H1915; first compound 8 µM
  relative viability: 1.12
HCC-15; first compound 0.08 µM
  relative viability: 0.922
HCC-15; first compound 0.8 µM
  relative viability: 0.895
HCC-15; first compound 2.53 µM
  relative viability: 0.996
HCC-15; first compound 8 µM
  relative viability: 0.905
HARA; first compound 0.08 µM
  relative viability: 0.972
HARA; first compound 0.8 µM
  relative viability: 0.914
HARA; first compound 2.53 µM
  relative viability: 0.996
HARA; first compound 8 µM
  relative viability: 1.16
LC-2-ad; first compound 0.08 µM
  relative viability: 0.822
LC-2-ad; first compound 0.8 µM
  relative viability: 0.891
LC-2-ad; first compound 2.53 µM
  relative viability: 0.526
LC-2-ad; first compound 8 µM
  relative viability: 0.913
LCLC-97TM1; first compound 0.8 µM
  relative viability: 0.239
LCLC-97TM1; first compound 2.53 µM
  relative viability: 0.233
LCLC-97TM1; first compound 8 µM
  relative viability: 0.204
PC-3 [JPC-3]; first compound 0.08 µM
  relative viability: 0.972
PC-3 [JPC-3]; first compound 0.8 µM
  relative viability: 0.967
PC-3 [JPC-3]; first compound 2.53 µM
  relative viability: 0.947
PC-3 [JPC-3]; first compound 8 µM
  relative viability: 0.983
LU99A; first compound 0.08 µM
  relative viability: 0.537
LU99A; first compound 0.8 µM
  relative viability: 0.618
LU99A; first compound 2.53 µM
  relative viability: 0.552
LU99A; first compound 8 µM
  relative viability: 0.472
SK-LU-1; first compound 0.08 µM
  relative viability: 1.17
SK-LU-1; first compound 0.8 µM
  relative viability: 1.28
SK-LU-1; first compound 2.53 µM
  relative viability: 1.1
SK-LU-1; first compound 8 µM
  relative viability: 0.993
NCI-H23; first compound 0.08 µM
  relative viability: 0.548
NCI-H23; first compound 0.8 µM
  relative viability: 0.547
NCI-H23; first compound 2.53 µM
  relative viability: 0.609
NCI-H23; first compound 8 µM
  relative viability: 0.652
EMC-BAC-2; first compound 0.08 µM
  relative viability: 0.845
EMC-BAC-2; first compound 0.8 µM
  relative viability: 0.862
EMC-BAC-2; first compound 2.53 µM
  relative viability: 0.844
EMC-BAC-2; first compound 8 µM
  relative viability: 0.842
NCI-H1944; first compound 0.08 µM
  relative viability: 1.15
NCI-H1944; first compound 0.8 µM
  relative viability: 1.39
NCI-H1944; first compound 2.53 µM
  relative viability: 1.17
NCI-H1944; first compound 8 µM
  relative viability: 1.12
NCI-H2126; first compound 0.08 µM
  relative viability: 0.714
NCI-H2126; first compound 0.8 µM
  relative viability: 0.787
NCI-H2126; first compound 2.53 µM
  relative viability: 0.746
NCI-H2126; first compound 8 µM
  relative viability: 0.676
NCI-H1793; first compound 0.08 µM
  relative viability: 0.736
NCI-H1793; first compound 0.8 µM
  relative viability: 1.15
NCI-H1793; first compound 2.53 µM
  relative viability: 1.5
NCI-H1793; first compound 8 µM
  relative viability: 0.853
NCI-H460; first compound 0.08 µM
  relative viability: 0.808
NCI-H460; first compound 0.8 µM
  relative viability: 0.988
NCI-H460; first compound 2.53 µM
  relative viability: 1.18
NCI-H460; first compound 8 µM
  relative viability: 0.69
NCI-H1437; first compound 0.08 µM
  relative viability: 1.01
NCI-H1437; first compound 0.8 µM
  relative viability: 1.1
NCI-H1437; first compound 2.53 µM
  relative viability: 1.24
NCI-H1437; first compound 8 µM
  relative viability: 0.76
H3255; first compound 0.08 µM
  relative viability: 1
H3255; first compound 0.8 µM
  relative viability: 1.23
H3255; first compound 2.53 µM
  relative viability: 0.931
H3255; first compound 8 µM
  relative viability: 0.922
HCC-827; first compound 0.08 µM
  relative viability: 0.997
HCC-827; first compound 0.8 µM
  relative viability: 0.949
HCC-827; first compound 2.53 µM
  relative viability: 0.992
HCC-827; first compound 8 µM
  relative viability: 1.01
EKVX; first compound 0.08 µM
  relative viability: 0.967
EKVX; first compound 0.8 µM
  relative viability: 1.09
EKVX; first compound 2.53 µM
  relative viability: 1.2
EKVX; first compound 8 µM
  relative viability: 1.06
NCI-H441; first compound 0.08 µM
  relative viability: 0.598
NCI-H441; first compound 0.8 µM
  relative viability: 0.559
NCI-H441; first compound 2.53 µM
  relative viability: 0.539
NCI-H441; first compound 8 µM
  relative viability: 0.622
NCI-H322M; first compound 0.08 µM
  relative viability: 0.936
NCI-H322M; first compound 0.8 µM
  relative viability: 1.08
NCI-H322M; first compound 2.53 µM
  relative viability: 1.1
NCI-H322M; first compound 8 µM
  relative viability: 0.856
